Measured values as given in patent publication US7348347B2, “Substituted 4,5,6,7-tetrahydrobenzthiazol-2-ylamine compounds” (Gruenenthal GmbH, priority 2004, dated 2008).

Key:
[1] = target: T1, NA transporter (Rattus norvegicus, UniProt Q63380); assay: Inhibition of noradrenaline uptake in rat brain synaptosomes; assay type: biochemical; conditions: 10 μM, rat synaptosomes (hypothalamus), [3H]-NA; for inhibition at 10 µM: read-out: % Inhibition of NA uptake [10 μM]
T1 construct: from tissue; host or cells: rat brain synaptosomes (P2 fraction) from hypothalamus
Procedure: II. […] For in vitro studies, synaptosomes of rat brain areas are freshly isolated, as described in the article “The isolation of nerve endings from brain” by E. G. Gray and […]. Anatomy 96, pages 79-88, 1962. The relevant literature reference is enclosed herein by reference and is to be regarded as part of the disclosure. […] The homogenate is centrifuged at 4° C. for 10 minutes at 1000 g. […] The respective uptake was measured in a 96 well microtiter plate. The volume was 250 μL and the incubation was carried out at room temperature (ca 20-25° C.) under a blanket of oxygen. […] The 96 samples through were then filtered through a Unifilter GF/B® microtiter plate (Packard) and washed with 200 mL of incubated buffer with the aid of a “Brabdel Cell-Harvester MPXRI 96T”. The Unifilter GF/B plate was dried at 55° C. over a period of 1 h. The plate was then sealed with a back seal® (Packard) and there were then added 35 μL of scintillant fluid per well (Ultima Gold, Packard). Following sealing with a top seal® (Packard) and following adjustment of the equilibrium (approximately over a period of 5 h), the radioactivity is determined in a 1450 Microbeta® (Wallac). […] The amount of protein used in the above determination corresponded to the values known from the literature, such as is described in “Protein measurement with the folin phenol reagent”, Lowry et al., J. Biol. Chem., 193, 265-275, 1951. A detailed description of the method is disclosed in the literature, for example, in […], and B. […] The relevant literature references are incorporated herein by reference and are to be regarded as part of the disclosure.

[2] = target: T2, 5-HT uptake (Rattus norvegicus, UniProt P31652); assay: Inhibition of 5-HT uptake in rat brain synaptosomes; assay type: biochemical; conditions: [3H]-5-HT
T2 construct: from tissue; host or cells: rat brain synaptosomes (P2 fraction) from marrow (medulla) and pons
Procedure: The relevant literature reference is enclosed herein by reference and is to be regarded as part of the disclosure.
The homogenate is centrifuged at 4° C. for 10 minutes at 1000 g. Following subsequent centrifugation at 17,000 g for 55 minutes, the synaptosomes (P2 fraction) are obtained, which are then resuspended in 0.32 M […] (0.5 mL/100 mg of the original weight).
The respective uptake was measured in a 96 well microtiter plate. The volume was 250 μL and the incubation was carried out at room temperature (ca 20-25° C.) under a blanket of oxygen.
The 96 samples through were then filtered through a Unifilter GF/B® microtiter plate (Packard) and washed with 200 mL of incubated buffer with the aid of a “Brabdel Cell-Harvester MPXRI 96T”. The Unifilter GF/B plate was dried at 55° C. over a period of 1 h. The plate was then sealed with a back seal® (Packard) and there were then added 35 μL of scintillant fluid per well (Ultima Gold, Packard).
A detailed description of the method is disclosed in the literature, for example, in M. Ch.

[3] = rat synaptosomes (medulla and pons)

T2 sequence (P31652 whole entry): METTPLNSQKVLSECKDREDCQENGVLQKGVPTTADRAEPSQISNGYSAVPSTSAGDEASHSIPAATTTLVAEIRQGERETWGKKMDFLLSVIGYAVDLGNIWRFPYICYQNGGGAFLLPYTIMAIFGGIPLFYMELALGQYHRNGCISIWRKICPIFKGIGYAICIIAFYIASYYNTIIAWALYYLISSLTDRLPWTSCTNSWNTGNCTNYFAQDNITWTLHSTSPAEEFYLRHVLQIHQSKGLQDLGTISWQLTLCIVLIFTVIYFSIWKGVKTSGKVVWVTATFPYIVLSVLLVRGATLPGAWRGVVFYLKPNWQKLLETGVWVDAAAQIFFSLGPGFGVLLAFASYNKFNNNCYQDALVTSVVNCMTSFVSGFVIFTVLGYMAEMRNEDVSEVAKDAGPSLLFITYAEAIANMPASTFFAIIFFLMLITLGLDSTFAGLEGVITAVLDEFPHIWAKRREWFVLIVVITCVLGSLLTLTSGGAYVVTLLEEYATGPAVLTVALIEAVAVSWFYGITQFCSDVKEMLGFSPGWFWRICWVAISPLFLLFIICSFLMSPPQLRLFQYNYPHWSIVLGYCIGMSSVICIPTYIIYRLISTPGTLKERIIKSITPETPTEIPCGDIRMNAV
T1 sequence (Q63380 1-617): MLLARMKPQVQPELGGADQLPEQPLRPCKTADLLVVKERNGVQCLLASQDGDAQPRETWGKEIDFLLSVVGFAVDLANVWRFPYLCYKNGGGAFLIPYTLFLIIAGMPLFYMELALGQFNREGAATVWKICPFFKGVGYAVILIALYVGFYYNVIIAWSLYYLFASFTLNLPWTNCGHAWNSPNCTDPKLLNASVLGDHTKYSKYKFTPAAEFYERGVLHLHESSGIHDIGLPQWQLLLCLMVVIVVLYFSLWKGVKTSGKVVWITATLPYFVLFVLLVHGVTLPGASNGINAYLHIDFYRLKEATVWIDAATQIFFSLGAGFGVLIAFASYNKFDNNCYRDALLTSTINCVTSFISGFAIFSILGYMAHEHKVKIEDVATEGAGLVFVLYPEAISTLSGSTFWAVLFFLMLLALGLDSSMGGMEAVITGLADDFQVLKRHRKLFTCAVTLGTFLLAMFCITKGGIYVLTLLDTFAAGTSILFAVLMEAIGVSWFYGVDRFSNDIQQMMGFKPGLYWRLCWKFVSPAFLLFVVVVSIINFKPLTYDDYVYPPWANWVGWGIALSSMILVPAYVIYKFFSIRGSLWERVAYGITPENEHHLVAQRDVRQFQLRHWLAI

Row | SMILES | % Inhibition of NA uptake [10 μM] [1] | % Inhibition of 5-HT uptake [10 μM] [2, 3] | inhibition at 10 µM [1] | inhibition at 10 µM [2, 3] | % Inhibition of 5-HT uptake [10 μM] ([2]; rat synaptosomes (and pons))
1 | CC=CC=CC(=O)Nc1nc2c(s1)CCCC2C(=O)NCC1CCN(Cc2c(F)cccc2Cl)C1 (centres unmarked) [Example 61, 2-Hexa-2,4-dienoylamino-4,5,6,7-tetrahydrobenzthiazol-4-carboxylic acid[1-(2-chloro-6-fluorobenzyl)pyrrolidin-3-yl]methylamide] | 45% | 46% |  |  | 
2 | CC=CC=CC(=O)Nc1nc2c(s1)CCCC2C(=O)NCC1CCN(Cc2c(Cl)cccc2Cl)C1 (centres unmarked) [Example 49, 2-Hexa-2,4-dienoylamino-4,5,6,7-tetrahydrobenzthiazol-4-carboxylic acid[1-(2,6-dichlorobenzyl)pyrrolidin-3-yl]methylamide] | 44% | 51% |  |  | 
3 | O=C(Nc1nc2c(s1)CCCC2C(=O)N1CCN(c2ccccn2)CC1)c1ccoc1 (centres unmarked) [Example 64, Furan-3-carboxylic acid[4-(4-pyridin-2-ylpiperazin-1-carbonyl)-4,5,6,7-tetrahydrobenzthiazol-2-yl]amide] | 53% | 48% |  |  | 
4 | O=C(Cc1cccs1)Nc1nc2c(s1)CCCC2C(=O)NCCCN1CCOCC1 (centres unmarked) [Example 14] | 43% | 50% |  |  | 
5 | CCOc1ccccc1C(=O)Nc1nc2c(s1)CCCC2C(=O)N1CCN(CCc2ccccc2)CC1 (centres unmarked) [Example 20, 2-Ethoxy-N-[4-(4-phenethylpiperazin-1-carbonyl)-4,5,6,7-tetrahydrobenzthiazol-2-yl]benzamide] |  |  | 77% | 64% | 
6 | CC(C)(C)CC(=O)Nc1nc2c(s1)CCCC2C(=O)N1CCN(Cc2ccccc2)CC1 (centres unmarked) [Example 82, N-[4-(4-Benzylpiperazin-1-carbonyl)-4,5,6,7-tetrahydrobenzthiazol-2-yl]-3,3-dimethylbutyramide] |  |  | 64% | 41% | 
7 | O=C(CC1CCCCC1)Nc1nc2c(s1)CCCC2C(=O)NCC1CCN(Cc2c(Cl)cccc2Cl)C1 (centres unmarked) [Example 67, 2-(2-cyclohexylacetylamino)-4,5,6,7-tetrahydrobenzthiazol-4-carboxylic acid[1-(2,6-dichlorobenzyl)pyrrolidin-3-yl]methylamide] | 42% | 97% |  |  | 
8 | CCOc1ccccc1C(=O)Nc1nc2c(s1)CCCC2C(=O)N1CCN(C(C)c2ccccc2)CC1 (centres unmarked) [Example 75, 2-Ethoxy-N-{4-[4-(1-phenylethyl)piperazin-1-carbonyl]-4,5,6,7-tetrahydrobenzthiazol-2-yl}benzamide] |  |  | 51% | 59% | 
9 | CC(=O)c1ccc(N2CCN(C(=O)C3CCCc4sc(NC(=O)c5ccco5)nc43)CC2)cc1 (centres unmarked) [Example 8, Furan-2-carboxylic acid{4-[4-(4-acetylphenyl)piperazin-1-carbonyl]-4,5,6,7-tetrahydrobenzthiazol-2-yl}amide] | 78% | 89% |  |  | 
10 | CCCC(=O)Nc1nc2c(s1)CCCC2C(=O)NCC1CCN(Cc2ccc(-c3ccccc3)cc2)C1 (centres unmarked) [Example 29, 2-Butyrylamino-4,5,6,7-tetrahydrobenzthiazol-4-carboxylic acid (1-biphenyl-4-ylmethylpyrrolidin-3-yl)methylamide] |  |  | 73% | 55% | 
11 | COc1cc(OC)c(CN2CCC(NC(=O)C3CCCc4sc(NC(=O)c5ccco5)nc43)C2)c(OC)c1 (centres unmarked) [Example 9, 2-[(Furan-2-carbonyl)amino]-4,5,6,7-tetrahydrobenzthiazol-4-carboxylic acid [1-(-2,4,6-trimethoxybenzyl)pyrrolidin-3-yl]amide] |  |  | 98% | 53% | 
12 | CCOc1ccccc1CN1CCC(CNC(=O)C2CCCc3sc(NC(=O)Cc4cccs4)nc32)C1 (centres unmarked) [Example 40] | 47% |  |  |  | 48%
13 | O=C(COc1ccc(F)cc1)Nc1nc2c(s1)CCCC2C(=O)N1CCN(c2ccccc2)CC1 (centres unmarked) [Example 21, 2-(4-Fluorophenoxy)-N-[4-(4-phenylpiperazin-1-carbonyl)-4,5,6,7-tetrahydrobenzthiazol-2-yl]acetamide] |  |  | 55% | 47% | 
14 | COc1cccc(N2CCN(C(=O)C3CCCc4sc(NC(=O)c5ccccc5)nc43)CC2)c1 (centres unmarked) [Example 28, N-{4-[4-(3-Methoxyphenyl)piperazin-1-carbonyl]-4,5,6,7-tetrahydrobenzthiazol-2-yl}benzamide] |  |  | 60% | 48% | 
15 | CC(C(=O)Nc1nc2c(s1)CCCC2C(=O)N1CCN(C(C)C)CC1)c1ccccc1 (centres unmarked) [Example 10, N-[4-(4-Isopropylpiperazin-1-carbonyl)-4,5,6,7-tetrahydrobenzthiazol-2-yl]-2-phenylpropionamide] |  |  | 64% | 42% | 
16 | COc1ccc(N2CCN(C(=O)C3CCCc4sc(NC(=O)c5ccccc5)nc43)CC2C)cc1 (centres unmarked) [Example 7, N-{4-[4-(4-Methoxyphenyl)-3-methylpiperazin-1-carbonyl]-4,5,6,7-tetrahydrobenzthiazol-2-yl]-benzamide] |  |  | 48% | 51% | 
17 | CCOc1ccc(Br)cc1CN1CCC(NC(=O)C2CCCc3sc(NC(=O)c4ccco4)nc32)C1 (centres unmarked) [Example 50, 2-[(Furan-2-carbonyl)amino]-4,5,6,7-tetrahydrobenzthiazol-4-carboxylic acid [1-(5-bromo-2-ethoxybenzyl)pyrrolidin-3-yl]amide] |  |  | 93% | 72% | 
18 | CC(C(=O)Nc1nc2c(s1)CCCC2C(=O)NCCC1CCCN1C)c1ccccc1 (centres unmarked) [Example 22, 2-(2-Phenylpropionylamino)-4,5,6,7-tetrahydrobenzthiazol-4-carboxylic acid [2-(1-methylpyrrolidin-2-yl)ethyl]amide] |  |  | 60% | 44% | 
19 | CCCCCC(=O)Nc1nc2c(s1)CCCC2C(=O)NCCCN1CCCCC1C (centres unmarked) [Example 18, 2-Hexanylamino-4,5,6,7-tetrahydrobenzthiazol-4-carboxylic acid[3-(2-methylpiperidin-1-yl)propyl]amide] | 43% | 57% |  |  | 
20 | O=C(Cc1cccs1)Nc1nc2c(s1)CCCC2C(=O)NCCN1CCCCCC1 (centres unmarked) [Example 39, 2-(2-Thiophen-2-ylacetylamino)-4,5,6,7-tetrahydrobenzthiazol-4-carboxylic acid(2-azepan-1-ylethyl)amide] | 50% | 49% |  |  | 
21 | CC(C)(C)CC(=O)Nc1nc2c(s1)CCCC2C(=O)NC1CCN(Cc2ccccc2OCc2ccccc2)C1 (centres unmarked) [Example 73, 2-(3,3-Dimethylbutyrylamino)-4,5,6,7-tetrahydrobenzthiazol-4-carboxylic acid [1-(2-benzyloxybenzyl)pyrrolidin-3-yl]amide] |  |  | 75% | 71% | 
22 | COc1ccc(C(=O)Nc2nc3c(s2)CCCC3C(=O)NCC2CCN(Cc3c(F)cccc3Cl)C2)cc1 (centres unmarked) [Example 12, 2-(4-Methoxybenzoylamino)-4,5,6,7-tetrahydrobenzthiazol-4-carboxylic acid [1-(2-chloro-6-fluorobenzyl)pyrrolidin-3-yl]methylamide] |  |  | 48% | 55% | 
23 | COc1cc(Br)c(CN2CCC(NC(=O)C3CCCc4sc(NC(=O)C(C)c5ccccc5)nc43)C2)cc1OC (centres unmarked) [Example 33] | 79% | 63% |  |  | 
24 | CCCC(=O)Nc1nc2c(s1)CCCC2C(=O)N1CCN(Cc2cc3ccccc3o2)CC1 (centres unmarked) [Example 27, N-[4-(4-Benzofuran-2-ylmethylpiperazin-1-carbonyl)-4,5,6,7-tetrahydrobenzthiazol-2-yl]butyramide] |  |  | 47% | 61% | 
25 | O=C(CCc1ccccc1)Nc1nc2c(s1)CCCC2C(=O)NCC1CCN(Cc2cc3ccccc3o2)C1 (centres unmarked) [Example 48, 2-(3-Phenylpropionylamino)-4,5,6,7-tetrahydrobenzthiazol-4-carboxylic acid (1-benzofuran-2-ylmethylpyrrolidin-3-yl)methylamide] |  |  | 67% | 51% | 
